This is an account of results in the SangsterLogP compilation.

The logP is the decadic logarithm of the partition coefficient of the neutral form, usually between octanol and water. By logD is commonly meant the decadic logarithm of the distribution of all forms, ionised or not, between an organic phase and buffer at a given pH. Higher therefore signals a more lipophilic compound.

One data set is described as follows: method code SF, from Hansch, C. & Leo, A. (1987). Log P database [Dataset]. Pomona College Medicinal Chemistry Project.
Settings: not given
For `NC(=O)c1ccoc1`, the log partition coefficient (logP) is 0.09.
Take `Cc1cc(C)ncn1`: the lipophilicity (logP) turned out to be 0.62.
Same read-out and setting: to `C[C@]12CCC(=O)C=C1CC[C@@H]1[C@@H]2[C@@H](O)C[C@@]2(C)[C@H]1CC[C@]2(O)C(=O)CO` belongs 1.61; to `O=P1(NCCCl)OCCCN1CCCl` (centres undefined), 0.86.
Still for that read-out and setting: as for `O=NN1CCCCC1=O`, the figure is -1.05; as for `C[C@@H]1CC[C@H](C)N1C(=O)Nc1ccccc1`, 2.33.
Regarding `CN(C)c1ncnc2sccc12`, the logP was 1.82.
On to `CN(C)CCCc1ccco1`, for which the lipophilicity (logP) amounted to 2.08.
Still for that read-out and setting: as for `CC(=O)Nc1cccc(NC(C)=O)c1`, the figure is 0.5.
`N#Cc1cccc(C(N)=O)c1` had a logP of 0.52.
`CC(C)(C)c1ccc(C(N)=O)cc1` yielded a logP of 2.51.
As to `O=[N+]([O-])Cc1ccccc1`, the lipophilicity (logP) worked out at 1.75.
Same read-out and setting: to `CN1CCOCC1` belongs -0.33; to `Cc1cccs1`, 2.33.
`O=C(O)Cc1ccc(S(=O)(=O)F)cc1` returned a logP of 1.86.
The compound `CC(=O)c1ccccc1OC(=O)N(C)C` had a logP of 0.93.
The same measure, in the same setting: to `CC(C)C(=O)Nc1ccc(Cl)c(Cl)c1` belongs 3.72; to `O=S(=O)(N=[N+]([O-])c1ccccc1)c1ccccc1`, 2.33; to `Cc1oc2ccccc2c(=O)c1C`, 2.31.
As for `CSc1ccc(C=NN=C(N)NN)cc1`, the logP turned out to be 1.35.
For `CN(C)/N=N/c1cccc([N+](=O)[O-])c1`, the logP came out at 2.75.
The same measure, in the same setting: as for `CN(C)C(=O)c1cccs1`, the figure is 0.75; as for `CCOC(CP(=O)(OCC)OCC)OCC`, 0.69.
On the same count and under the same terms, as for `O=C(c1ccco1)C(O)c1ccco1` (centres undefined), the figure is 0.54; as for `CCCCNP(=O)(OC)Oc1cc(Cl)c(Cl)cc1Cl` (centres undefined), 4.18.
Still for that read-out and setting: as for `CCc1n[nH]c(=O)[nH]c1=O`, the figure is 0.22; as for `c1ccc(CSc2cnn[nH]2)cc1`, 2.65.
`O=C(Nc1ccccc1)c1ccc(C(=O)Nc2ccccc2)cc1`: the logP is 3.72.
Still for that read-out and setting: to `Cc1ccc(CO)cc1` belongs 1.59.
Compound `CC(=O)Nc1ccc(OC(C)=O)cc1` came in with a lipophilicity (logP) of 0.8.
The compound `C=CC(=O)c1ccccc1` gave a logP of 1.88.
Consider `CC(=NNC(=S)N(C)C)c1cc(C)ccc1O`, for which the logP worked out at 2.26.
In turn, `O=C(O)C(Cl)(Cl)Cl` yielded a log partition coefficient (logP) of 1.33.
Same read-out and setting: as for `Nc1ccc2nc3ccccc3cc2c1`, the figure is 2.62; as for `COc1cc2c(c3c1c(=O)c1ccccc1n3C)C=CC(C)(C)O2`, 3.67.
The same measure, in the same setting: as for `OCCC(F)(F)F`, the figure is 0.39.
The same measure, in the same setting: to `O=C(O)COc1ccc(Cl)c(I)c1` belongs 3.1.
For the compound `Cc1ccc(C=C(C#N)C#N)cc1`, the lipophilicity (logP) was 2.4.
Take `NC(=O)CF`: the logP is -1.05.
On the same count and under the same terms, as for `ClC(Cl)(Cl)c1ccc(C(Cl)(Cl)Cl)cc1`, the figure is 4.62.
With `CCOC(=O)C(=Cc1cccc(F)c1)C(=O)OCC`, the log partition coefficient (logP) stood at 3.19.
Still for that read-out and setting: as for `CC1CCC(O)CC1` (centres undefined), the figure is 1.79; as for `CCC1(c2ccccc2)NC(=O)NC1=O` (centres undefined), 1.53.
Still for that read-out and setting: as for `CC(=O)Nc1ccc(C(N)=O)cc1`, the figure is 0.01; as for `CNc1nccn2cc(-c3ccc(S(C)=O)cc3OC)nc12` (centres undefined), 1.88; as for `O=C(O)COc1ccc(S(=O)(=O)F)cc1`, 1.82.
Same read-out and setting: to `CNP(=O)(OC)Oc1ccc(SC)cc1` (centres undefined) belongs 1.81; to `CC(C)Oc1ccccc1OC(=O)N(C)C`, 2.06; to `O=C1c2ccccc2C(=O)N1CCCCBr`, 2.96.
`CCC(=O)OCCOc1ccc(C=O)cc1OC` gave a log partition coefficient (logP) of 1.33.
Turning to `CC(=O)Nc1ccc(CN(C)/N=N/c2ccc(C(=O)O)cc2)cc1`, the lipophilicity (logP) was 3.35.
Regarding `Cc1cccc(C)c1[N+](=O)[O-]`, the logP stood at 2.95.
Consider `CC(=O)OCC1CCC(NC(=O)N(CCCl)N=O)CC1` (centres undefined), for which the logP was found to be 2.24.
As for `OC(CF)CF`, the logP was -0.36.
On to `CN(C)/N=N/c1ccccc1C(=O)NCC#N`, for which the log partition coefficient (logP) came out at 1.79.
Same read-out and setting: to `CC(=O)OC1CCCCC1NC(=O)N(CCCl)N=O` (centres undefined) belongs 1.93.
On the same count and under the same terms, as for `CCC(O)CC`, the figure is 1.21; as for `CCC(CC)C1=Nc2ccccc2S(=O)(=O)N1`, 1.88; as for `CC(C)CCO[N+](=O)[O-]`, 2.84.
In the case of `Cc1ccc2c(ccc[n+]2[O-])c1`, the lipophilicity (logP) stood at 0.95.
Consider `Cc1cc(CSc2ccccc2C(C)C)c(O)c(C(=O)O)c1`, for which the logP was found to be 4.36.
Regarding `N#Cc1c[nH]c2ccccc12`, the logP came out at 2.32.
Same read-out and setting: as for `CC1CCCN(N=O)C1=O` (centres undefined), the figure is -0.66.
With `CN(C)C(=O)c1ccsc1`, the logP came out at 0.55.
`CCOC(=O)c1ccncc1` gave a logP of 1.43.
As for `CN(C)C(=S)Nc1ccccc1`, the lipophilicity (logP) is 1.04.
Compound `CC#CC` yielded a log partition coefficient (logP) of 1.46.
Still for that read-out and setting: as for `c1cc2[nH]cnc2cn1`, the figure is 0.18; as for `O=[N+]([O-])c1ccc(C=Cc2nc3ccccc3[nH]2)o1`, 1.4; as for `CCC(C)NC(=O)C=C(Cl)c1ccc(Cl)cc1` (centres undefined), 3.61.
Still for that read-out and setting: to `CC(=O)Nc1cccc(C(C)=O)c1` belongs 1.1; to `NNC(=O)c1ccncc1`, -0.5.
On to `O=C(CNC(=O)c1ccccc1)Oc1ccccc1`, for which the lipophilicity (logP) came to 2.31.
Compound `CC(=O)Nc1ccccc1[N+](=O)[O-]` came in with a logP of 1.05.
Regarding `CCOC(=O)NC`, the logP amounted to 0.34.
As to `CN(C)/N=N/c1ccc(C#N)cc1`, the logP stood at 2.35.
The compound `CCCC=O` had a logP of 0.88.
`COC(=O)c1ccsc1` returned a logP of 1.76.
The compound `c1ccc(-c2cccs2)cc1` gave a log partition coefficient (logP) of 3.74.
The same measure, in the same setting: as for `CSc1ncnc2c1ncn2[C@@H]1O[C@H](CO)[C@@H](O)[C@@H]1O`, the figure is 0.09.
On the same count and under the same terms, to `O=C(O)CCl` belongs 0.22.

The data set is the same for the next values; noted with them: pH 1.0.
In turn, `O=C(O)CSc1ccccc1` came in with a logD of 1.88.
Compound `CCCN(CCC)S(=O)(=O)c1ccc(C(=O)O)cc1` registered a logD of 3.21.

Still in this data set, the particulars now being: pH 2.0.
Take `CCCCc1ccc(C(=O)O)nc1`: the logD was 0.68.

Still in this data set, the particulars now being: pH 7.0.
Compound `COC(=O)c1ccc(C(=O)OC)cc1` yielded a logD of 2.25.
On the same count and under the same terms, to `COc1ccccc1CO` belongs 1.13.
Still for that read-out and setting: as for `O=Cc1ccc([N+](=O)[O-])cc1`, the figure is 1.56.

The data set is the same for the next values; noted with them: pH 7.4.
In turn, `CSc1ccccc1/N=N/N(C)C` displayed a logD of 3.13.
For `CC(CN1CC(=O)NC(=O)C1)N1CC(=O)NC(=O)C1` (centres undefined), the logD is -1.74.
`O/N=C/CCc1ccccc1` gave a pH-dependent lipophilicity (logD) of 1.56.
On to `CO[C@H]1O[C@H](CNC(=O)N(C)N=O)[C@@H](O)[C@H](O)[C@H]1O`, for which the logD is -1.57.
On the same count and under the same terms, to `Cc1c(N2CCOCC2)c(=O)n(C)c(=O)n1C1CCCCC1` belongs 2.39; to `CC(O)C(C)(C)C(O)C(=O)OCC1=CC[N+]2([O-])CCC(O)C12` (centres undefined), -1.52.
In the case of `Cc1c(N2CCCC2)c(=O)n(-c2ccccc2)c(=O)n1C`, the log distribution coefficient (logD) is 2.26.
Regarding `O=c1cn[nH]c(=O)[nH]1`, the pH-dependent lipophilicity (logD) is -1.37.

The same data set, now with this note: pH 8.0.
`CC(=O)OC(OC(C)=O)c1ccc([N+](=O)[O-])o1` returned a logD of 1.06.

Still in this data set, the particulars now being: pH 12.0.
`CCCCC1CC(C(=O)NC(C(C)Cl)C2OC(SC)C(O)C(O)C2O)N(CC)C1` (centres undefined): the logD turned out to be 3.21.

The data set is the same for the next values; noted with them: pH 13.0.
As for `CC1(C)N=C(N)N=C(N)N1c1ccc(OCC(=O)N2CCOCC2)cc1`, the logD is -1.18.
Same read-out and setting: to `CN(c1ccccc1)c1ccccc1` belongs 3.9.
